Reference: PMC11277489, “Novel Piperazine Derivatives of Vindoline as Anticancer Agents” (International Journal of Molecular Sciences, 2024)
Where two headings read alike, the source gives them in different places.

Legend:
SR = test: NCI60 one-dose screen (10 μM), Leukemia; type: cell-based; settings: Homo sapiens, read-out: Growth percent rate
NCI-H226 = test: NCI60 one-dose screen (10 μM), Non-small Cell Lung Cancer; type: cell-based; settings: Homo sapiens
SF-268 = test: NCI60 one-dose screen (10 μM), CNS Cancer; type: cell-based; settings: Homo sapiens
LOX IMVI = test: NCI60 one-dose screen (10 μM), Melanoma; type: cell-based, human; settings: Homo sapiens, LOX IMVI, read-out: Growth percent rate
UACC-62 = test: NCI60 one-dose screen (10 μM), Melanoma; type: cell-based; settings: Homo sapiens
OVCAR-4 = test: NCI60 one-dose screen (10 μM), Ovarian Cancer; type: cell-based; settings: Homo sapiens
OVCAR-5 = test: NCI60 one-dose screen (10 μM), Ovarian Cancer; type: cell-based; settings: Homo sapiens
NCI/ADR-RES = test: NCI60 one-dose screen (10 μM), Ovarian Cancer; type: cell-based; settings: Homo sapiens, read-out: Growth percent rate
SK-OV-3 = test: NCI60 one-dose screen (10 μM), Ovarian Cancer; type: cell-based; settings: Homo sapiens
RXF 393 = test: NCI60 one-dose screen (10 μM), Renal Cancer; type: cell-based, human; settings: Homo sapiens
UO-31 = test: NCI60 one-dose screen (10 μM), Renal Cancer; type: cell-based; settings: Homo sapiens
PC-3 = test: NCI60 one-dose screen (10 μM), Prostate Cancer; type: cell-based; settings: Homo sapiens
DU-145 = test: NCI60 one-dose screen (10 μM), Prostate Cancer; type: cell-based; settings: Homo sapiens
MDA-MB-231/ATCC = test: NCI60 one-dose screen (10 μM), Breast Cancer; type: cell-based, human; settings: Homo sapiens
BT-549 = test: NCI60 one-dose screen (10 μM), Breast Cancer; type: cell-based; settings: Homo sapiens
T-47D = test: NCI60 one-dose screen (10 μM), Breast Cancer; type: cell-based; settings: Homo sapiens, T47D, read-out: Growth percent rate
[1] = tested on: 60 human tumor cell lines (NCI60); test: NCI60 one-dose screen (10 μM), whole panel; type: cell-based; settings: for activity at 10 µM: read-out: Growth percent rate, Mean; for antiproliferative effect (in words): 10 μM one-dose, NCI60
HOP-92 = test: NCI60 one-dose screen (10 μM), Non-small Cell Lung Cancer; type: cell-based; settings: Homo sapiens
MDA-MB-468 = test: NCI60 one-dose screen (10 μM), Breast Cancer; type: cell-based; settings: Homo sapiens
[2] = NCI-H226, read-out: Growth percent rate
[3] = SF-268, read-out: Growth percent rate
[4] = UACC-62, read-out: Growth percent rate
[5] = OVCAR-4, read-out: Growth percent rate
[6] = OVCAR-5, read-out: Growth percent rate
[7] = SK-OV-3, read-out: Growth percent rate
[8] = RXF 393, read-out: Growth percent rate
[9] = UO-31, read-out: Growth percent rate
[10] = PC-3, read-out: Growth percent rate
[11] = DU-145, read-out: Growth percent rate
[12] = MDA-MB-231, read-out: Growth percent rate
[13] = BT-549, read-out: Growth percent rate
[14] = 10 μM, HOP-92, Non-small Cell Lung Cancer, read-out: Growth percent rate
[15] = 10 μM, NCI-H226, Non-small Cell Lung Cancer, read-out: Growth percent rate
[16] = 10 μM, SF-268, CNS Cancer, read-out: Growth percent rate
[17] = 10 μM, UACC-62, Melanoma, read-out: Growth percent rate
[18] = 10 μM, OVCAR-4, Ovarian Cancer, read-out: Growth percent rate
[19] = 10 μM, SK-OV-3, Ovarian Cancer, read-out: Growth percent rate
[20] = 10 μM, RXF 393, Renal Cancer, read-out: Growth percent rate
[21] = 10 μM, PC-3, Prostate Cancer, read-out: Growth percent rate
[22] = 10 μM, DU-145, Prostate Cancer, read-out: Growth percent rate
[23] = 10 μM, BT-549, Breast Cancer, read-out: Growth percent rate
[24] = 10 μM, MDA-MB-468, Breast Cancer, read-out: Growth percent rate
[25] = 10 μM, mean over 60 human cancer cell lines
[26] = HOP-92, read-out: Growth percent rate
[27] = MDA-MB-468, read-out: Growth percent rate

Row | Structure (SMILES) | activity at 10 µM (NCI-H226; [2]) [%] | activity at 10 µM (SF-268; [3]) [%] | activity at 10 µM (LOX IMVI) [%] | activity at 10 µM (OVCAR-4; [5]) [%] | activity at 10 µM (OVCAR-5; [6]) [%] | activity at 10 µM (NCI/ADR-RES) [%] | activity at 10 µM (RXF 393; [8]) [%] | activity at 10 µM (UO-31; [9]) [%] | activity at 10 µM (PC-3; [10]) [%] | activity at 10 µM (DU-145; [11]) [%] | activity at 10 µM (MDA-MB-231/ATCC; [12]) [%] | activity at 10 µM (BT-549; [13]) [%] | activity at 10 µM ([1]; Homo sapiens) [%] | activity at 10 µM (NCI-H226; [15]) [%] | activity at 10 µM (SF-268; [16]) [%] | activity at 10 µM (LOX IMVI; 10 μM, Melanoma) [%] | activity at 10 µM (UACC-62; [17]) [%] | activity at 10 µM (OVCAR-4; [18]) [%] | activity at 10 µM (NCI/ADR-RES; 10 μM, Ovarian Cancer) [%] | activity at 10 µM (SK-OV-3; [19]) [%] | further results
1 | CCC12C=CCN3CCC4(c5cc(NC(=O)CN6CCN(Cc7ccc(F)cc7)CC6)c(OC)cc5N(C)C4C(O)(C(=O)OC)C1OC(C)=O)C32 (stereo not drawn) [Compound 19] | 97.8 | 102 | 99.1 | 102 | 111 | 97.3 | 90.4 | 89.1 | 73.6 | 111 | 102 | 101 | 99.6 | – | – | – | – | – | – | – | activity at 10 µM (SR): 75.3%; activity at 10 µM (UACC-62; [4]): 96.9%; activity at 10 µM (SK-OV-3; [7]): 108%; activity at 10 µM (T-47D): 93%
2 | CC[C@]12C=CCN3CC[C@@]4(c5ccc(OC)cc5N(C)[C@H]4[C@@](O)(C(=O)OC)[C@@H]1OC(=O)CCC(=O)N1CCN(C)CC1)[C@@H]32 [Compound 27] | – | – | – | – | – | – | – | – | – | – | – | – | – | 80.4 | 99.5 | 93 | 112 | 105 | 107 | 106 | activity at 10 µM (HOP-92; [14]): 105%; activity at 10 µM (RXF 393; [20]): 82.3%; activity at 10 µM (PC-3; [21]): 101%; activity at 10 µM (DU-145; [22]): 103%; activity at 10 µM (BT-549; [23]): 88.6%; activity at 10 µM (MDA-MB-468; [24]): 124%; activity at 10 µM [1, 25]: 99.5%
3 | CCC12C=CCN3CCC4(c5cc(NC(=O)CN6CCN(C)CC6)c(OC)cc5N(C)C4C(O)(C(=O)OC)C1OC(C)=O)C32 (stereo not drawn) [Compound 16] | – | – | – | – | – | – | – | – | – | – | – | – | – | 101 | 116 | 95.2 | 98.9 | 109 | 104 | 113 | activity at 10 µM (SR; 10 μM, Leukemia): 93.8%; activity at 10 µM (OVCAR-5; 10 μM, OVCAR-5, Ovarian Cancer, read-out: Growth percent rate): 102%; activity at 10 µM (RXF 393; [20]): 102%; activity at 10 µM (UO-31; 10 μM, UO-31, Renal Cancer, read-out: Growth percent rate): 89.4%; activity at 10 µM (PC-3; [21]): 93.1%; activity at 10 µM (DU-145; [22]): 115%; activity at 10 µM (MDA-MB-231/ATCC; 10 μM, MDA-MB-231/ATCC, Breast Cancer, read-out: Growth percent rate): 102%; activity at 10 µM (BT-549; [23]): 113%; activity at 10 µM (T-47D; 10 μM, T-47D, Breast Cancer): 104%; activity at 10 µM [1, 25]: 103%
4 | CCC12C=CCN3CCC4(c5cc(NC(=O)CCl)c(OC)cc5N(C)C4C(O)(C(=O)OC)C1OC(C)=O)C32 (stereo not drawn) [Compound 12, 10-chloroacetamidovindoline] | – | – | – | – | – | – | – | – | – | – | – | – | – | 43.5 | -0.99 | 11.5 | 22.1 | -17.1 | 79.4 | 33.9 | activity at 10 µM (HOP-92; [14]): 34.3%; activity at 10 µM (RXF 393; [20]): -32.6%; activity at 10 µM (PC-3; [21]): 24.5%; activity at 10 µM (DU-145; [22]): 43.9%; activity at 10 µM (BT-549; [23]): 14.7%; activity at 10 µM (MDA-MB-468; [24]): -40.8%; antiproliferative effect (in words) [1]: moderate cytostatic activity; activity at 10 µM [1, 25]: 18.1%
5 | CCC12C=CCN3CCC4(c5ccc(OC)cc5N(C)C4C(O)(C(=O)OC)C1O)C32 (stereo not drawn) [Compound 13, 17-desacetylvindoline] | 88.5 | 107 | 97.5 | 95.8 | 91.2 | 99.4 | 104 | 87.6 | 96.5 | 110 | 101 | 101 | 98.8 | – | – | – | – | – | – | – | activity at 10 µM (HOP-92; [26]): 88.6%; activity at 10 µM (UACC-62; [4]): 90.7%; activity at 10 µM (T-47D): 108%; activity at 10 µM (MDA-MB-468; [27]): 92.2%; antiproliferative effect (in words) [1]: a notable antiproliferative effect was not shown
6 | CCC12C=CCN3CC[C@@]4(c5ccc(OC)cc5N(C)[C@H]4[C@@](O)(C(=O)OC)[C@@H]1OC(C)=O)[C@@H]32 (stereo partly drawn) [Compound 1, vindoline] | 92.3 | 122 | 95.3 | 136 | 107 | 107 | 98 | 84.6 | 98.6 | 119 | 113 | 106 | 107 | – | – | – | – | – | – | – | activity at 10 µM (HOP-92; [26]): 109%; activity at 10 µM (SK-OV-3; [7]): 102%; activity at 10 µM (MDA-MB-468; [27]): 134%; antiproliferative effect (in words) [1]: a notable antiproliferative effect was not shown; antiproliferative effect (in words) ([1]; listed as vindoline): does not show any anticancer effect
